Experimental data as given in US20050250715A1, “Remedy” (priority 2002, published 2005).

System: NGF
Experiment: Enhancing activity for NGF production in L-M cells (NGF in culture medium by enzyme immunoassay)
Assay type: cell-based, murine
Details: 20 hours; for Amount of NGF Production (%): control = 100%
Experimental: (2) The enhancing activity for NGF production of the compound a was assayed. L-M cells (ATCC CCL-1.2) from murine fibroblasts were suspended in an M199 medium (manufactured by Bio Whittaker) containing 0.5% bactopeptone (manufactured by Gibco) so as to have a concentration of 1.5×10^5 cells/mL. The suspension was put in a 96 well plate in an amount of 0.1 mL each well, and the cells were aseptically cultured. After culturing the cells for 3 days, the medium was removed therefrom, and exchanged with an M199 medium containing 0.5% bovine serum albumin (manufactured by Sigma). The compound a was added thereto, and the cells were cultured for 20 hours. After the termination of the culture, the concentration of NGF in the culture medium was assayed by an enzyme immunoassay method (NGF Emax Immuno Assay System, manufactured by Promega). The experiment was carried out twice, and an average value was taken. […] The amount of NGF production of the control was 0.739 ng/mL. As to the control, the concentration in the culture medium was determined in the same manner except that the compound a was not added. It is the same as that of the following examples.

| Compound | enhancing activity for NGF production (result in words) | Amount of NGF Production (%) (Concentration of Sample 0.5 mM) | Amount of NGF Production (%) (Concentration of Sample 1.0 mM) | Amount of NGF Production (%) (Concentration of Sample 2 mM) |
| --- | --- | --- | --- | --- |
| CC(=O)OC1C(OC2C(O)COC(OC3C(O)C(C)(C)CC4C5=CCC6C7(C)CCC(OC8OC(C(=O)O)C(O)C(O)C8OC8OC(CO)C(O)C(O)C8OC8OC(CO)C(O)C(O)C8O)C(C)(CO)C7CCC6(C)C5(C)CCC43C)C2O)OCC(O)C1O [Compound a, 3-O-[β-D-glucopyranosyl(1→2)-β-D-galactopyranosyl-(1→2)-β-D-glucuronopyranosyl]-22-O-[2-O-acetyl-β-D-xylopyranosyl(1→3)-α-L-arabinopyranosyl]soyasapogenol A] | has an enhancing activity for NGF production | 228.3% | 231.6% | 212.6% |
| CC(=O)OC1C(O)COC(OC2C(O)COC(OC3C(O)C(C)(C)CC4C5=CCC6C7(C)CCC(OC8OC(C(=O)O)C(O)C(O)C8OC8OC(CO)C(O)C(O)C8OC8OC(CO)C(O)C(O)C8O)C(C)(CO)C7CCC6(C)C5(C)CCC43C)C2O)C1O [Compound b, 3-O-[β-D-glucopyranosyl(1→2)-β-D-galactopyranosyl-(1→2)-β-D-glucuronopyranosyl]-22-O-[3-O-acetyl-β-D-xylopyranosyl(1→3)-α-L-arabinopyranosyl]soyasapogenol A] | has an enhancing activity for NGF production | 220.9% | 251.2% | 272.3% |
| CC(=O)OC1COC(OC2C(O)COC(OC3C(O)C(C)(C)CC4C5=CCC6C7(C)CCC(OC8OC(C(=O)O)C(O)C(O)C8OC8OC(CO)C(O)C(O)C8OC8OC(CO)C(O)C(O)C8O)C(C)(CO)C7CCC6(C)C5(C)CCC43C)C2O)C(O)C1O [Compound c, 3-O-[β-D-glucopyranosyl(1→2)-β-D-galactopyranosyl-(1→2)-β-D-glucuronopyranosyl]-22-O-[4-O-acetyl-β-D-xylopyranosyl(1→3)-α-L-arabinopyranosyl]soyasapogenol A] | has an enhancing activity for NGF production | 255.1% | 289.2% | 323.7% |
| CC(=O)OC1C(O)COC(OC2C(O)COC(OC3C(O)C(C)(C)CC4C5=CCC6C7(C)CCC(OC8OC(C(=O)O)C(O)C(O)C8OC8OC(CO)C(O)C(O)C8OC8OC(CO)C(O)C(O)C8O)C(C)(CO)C7CCC6(C)C5(C)CCC43C)C2O)C1OC(C)=O [Compound d, 3-O-[β-D-glucopyranosyl(1→2)-β-D-galactopyranosyl-(1→2)-β-D-glucuronopyranosyl]-22-O-[2,3-di-O-acetyl-β-D-xylopyranosyl(1→3)-α-L-arabinopyranosyl]soyasapogenol A] | has an enhancing activity for NGF production | 255.8% | 281.1% | 276.5% |
| CC(=O)OC1COC(OC2C(O)COC(OC3C(O)C(C)(C)CC4C5=CCC6C7(C)CCC(OC8OC(C(=O)O)C(O)C(O)C8OC8OC(CO)C(O)C(O)C8OC8OC(CO)C(O)C(O)C8O)C(C)(CO)C7CCC6(C)C5(C)CCC43C)C2O)C(OC(C)=O)C1O [Compound e, 3-O-[β-D-glucopyranosyl(1→2)-β-D-galactopyranosyl-(1→2)-β-D-glucuronopyranosyl]-22-O-[2,4-di-O-acetyl-β-D-xylopyranosyl(1→3)-α-L-arabinopyranosyl]soyasapogenol A] | has an enhancing activity for NGF production | 214.0% | 233.7% | 230.1% |
| CC(=O)OC1COC(OC2C(O)COC(OC3C(O)C(C)(C)CC4C5=CCC6C7(C)CCC(OC8OC(C(=O)O)C(O)C(O)C8OC8OC(CO)C(O)C(O)C8OC8OC(CO)C(O)C(O)C8O)C(C)(CO)C7CCC6(C)C5(C)CCC43C)C2O)C(O)C1OC(C)=O [Compound f, 3-O-[β-D-glucopyranosyl(1→2)-β-D-galactopyranosyl-(1→2)-β-D-glucuronopyranosyl]-22-O-[3,4-di-O-acetyl-β-D-xylopyranosyl(1→3)-α-L-arabinopyranosyl]soyasapogenol A] | has an enhancing activity for NGF production | 204.5% | 208.8% | 218.5% |
| CC(=O)OCC1OC(OC2C(O)COC(OC3C(O)C(C)(C)CC4C5=CCC6C7(C)CCC(OC8OC(C(=O)O)C(O)C(O)C8OC8OC(CO)C(O)C(O)C8OC8OC(CO)C(O)C(O)C8O)C(C)(CO)C7CCC6(C)C5(C)CCC43C)C2O)C(O)C(OC(C)=O)C1OC(C)=O [Compound g, 3-O-[β-D-glucopyranosyl(1→2)-β-D-galactopyranosyl-(1→2)-β-D-glucuronopyranosyl]-22-O-[3,4,6-tri-O-acetyl-β-D-glucopyranosyl(1→3)-α-L-arabinopyranosyl]soyasapogenol A] | has an enhancing activity for NGF production | 295.4% | 277.2% | 247.6% |
| CC(=O)OCC1OC(OC2C(O)COC(OC3C(O)C(C)(C)CC4C5=CCC6C7(C)CCC(OC8OC(C(=O)O)C(O)C(O)C8OC8OC(CO)C(O)C(O)C8OC8OC(CO)C(O)C(O)C8O)C(C)(CO)C7CCC6(C)C5(C)CCC43C)C2O)C(OC(C)=O)C(OC(C)=O)C1OC(C)=O [Compound h, 3-O-[β-D-glucopyranosyl(1→2)-β-D-galactopyranosyl-(1→2)-β-D-glucuronopyranosyl]-22-O-[2,3,4,6-tetra-O-acetyl-β-D-glucopyranosyl(1→3)-α-L-arabinopyranosyl]soyasapogenol A] | has enhancing activity for NGF production | 273.3% | 301.7% | 307.2% |
| CC1(C)C[C@@H](O)[C@]2(C)CC[C@]3(C)C(=CC[C@@H]4[C@@]5(C)CC[C@H](O[C@@H]6O[C@H](C(=O)O)[C@@H](O)[C@H](O)[C@H]6O[C@@H]6O[C@H](CO)[C@H](O)[C@H](O)[C@H]6O[C@@H]6O[C@H](CO)[C@@H](O)[C@H](O)[C@H]6O)[C@@](C)(CO)[C@@H]5CC[C@]43C)[C@@H]2C1 [Compound i, 3-O-[β-D-glucopyranosyl(1→2)-β-D-galactopyranosyl-(1→2)-β-D-glucuronopyranosyl]-soyasapogenol B] | has enhancing activity for NGF production |  | 116.8% | 169.4% |
| C[C@@H]1O[C@@H](O[C@H]2[C@H](O[C@H]3[C@H](O[C@H]4CC[C@@]5(C)[C@@H](CC[C@]6(C)[C@@H]5CC=C5[C@@H]7CC(C)(C)C[C@@H](O)[C@]7(C)CC[C@]56C)[C@@]4(C)CO)O[C@H](C(=O)O)[C@@H](O)[C@@H]3O)O[C@H](CO)[C@H](O)[C@@H]2O)[C@H](O)[C@H](O)[C@H]1O [Compound j, 3-O-[α-L-rhamnopyranosyl(1→2)-β-D-galactopyranosyl-(1→2)-β-D-glucuronopyranosyl]-soyasapogenol B] | has enhancing activity for NGF production | 138.2% | 176.4% | 212.5% |
